Columns and labels:
[1] = molecular target: T1, rat A1 receptors (Rattus norvegicus, UniProt P25099); assay: Radioligand binding at rat A1 adenosine receptors
T1 sequence (P25099 1-326): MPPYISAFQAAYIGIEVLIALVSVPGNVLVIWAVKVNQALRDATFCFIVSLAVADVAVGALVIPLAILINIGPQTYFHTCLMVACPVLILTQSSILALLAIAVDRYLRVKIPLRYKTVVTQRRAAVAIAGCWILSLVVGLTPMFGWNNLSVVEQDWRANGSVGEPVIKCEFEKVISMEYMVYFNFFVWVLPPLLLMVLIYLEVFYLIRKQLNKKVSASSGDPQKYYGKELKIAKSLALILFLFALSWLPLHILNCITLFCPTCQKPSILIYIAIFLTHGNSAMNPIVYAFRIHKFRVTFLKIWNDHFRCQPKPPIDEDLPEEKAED

[2] = molecular target: A2A receptors (Homo sapiens, UniProt P29274); assay: Radioligand binding at human A2A adenosine receptors, values marked (h); details: absence of ADA, read-out: K1 (nM), A2A (h)
[3] = molecular target: T2, human A2B receptor (Homo sapiens, UniProt P29275); assay: Radioligand binding at human A2B receptor using [3H]ZM 241,385; details: at 50 μM, absence of ADA
T2 sequence (P29275 1-332): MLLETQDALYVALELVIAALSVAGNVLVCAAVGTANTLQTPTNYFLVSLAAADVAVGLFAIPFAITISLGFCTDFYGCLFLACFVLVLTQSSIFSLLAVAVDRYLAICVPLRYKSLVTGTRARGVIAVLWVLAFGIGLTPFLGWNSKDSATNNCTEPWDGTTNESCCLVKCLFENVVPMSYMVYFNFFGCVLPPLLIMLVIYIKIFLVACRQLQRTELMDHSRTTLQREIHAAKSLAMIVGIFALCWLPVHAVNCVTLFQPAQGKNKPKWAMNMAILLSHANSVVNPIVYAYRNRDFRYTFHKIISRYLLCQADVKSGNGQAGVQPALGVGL

[4] = molecular target: T3, human A3 receptors (Homo sapiens, UniProt P0DMS8); assay: A3 adenosine receptor binding using [125I]AB-MECA, transfected CHO cell membranes; details: for Ki: human A3 receptors, absence of ADA, read-out: K1 (nM), hA3; for A1/A3: ratio of Ki at rat A1 to Ki at A3 (human, or rat where marked (r))
T3 sequence (P0DMS8 1-318): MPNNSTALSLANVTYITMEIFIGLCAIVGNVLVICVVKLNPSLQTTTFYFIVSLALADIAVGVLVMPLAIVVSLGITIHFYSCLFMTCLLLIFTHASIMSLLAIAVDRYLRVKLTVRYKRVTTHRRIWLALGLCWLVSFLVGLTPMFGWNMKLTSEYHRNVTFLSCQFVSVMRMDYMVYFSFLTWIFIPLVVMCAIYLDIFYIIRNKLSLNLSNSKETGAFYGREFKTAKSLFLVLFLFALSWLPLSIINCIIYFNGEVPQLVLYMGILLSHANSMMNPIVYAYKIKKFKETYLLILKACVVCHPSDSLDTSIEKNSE

[5] = system: adenosine deaminase (ADA); assay: Deamination by adenosine deaminase (ADA); type: biochemical; details: for relative rates of deamination: ADA, 5a set to 100
[6] = molecular target: human and turkey P2Y1 receptors; details: competitive antagonist; cited from earlier work
[7] = molecular target: T4, P2X1 receptors (Homo sapiens, UniProt P51575); details: cited from earlier work
T4 sequence (P51575 1-399): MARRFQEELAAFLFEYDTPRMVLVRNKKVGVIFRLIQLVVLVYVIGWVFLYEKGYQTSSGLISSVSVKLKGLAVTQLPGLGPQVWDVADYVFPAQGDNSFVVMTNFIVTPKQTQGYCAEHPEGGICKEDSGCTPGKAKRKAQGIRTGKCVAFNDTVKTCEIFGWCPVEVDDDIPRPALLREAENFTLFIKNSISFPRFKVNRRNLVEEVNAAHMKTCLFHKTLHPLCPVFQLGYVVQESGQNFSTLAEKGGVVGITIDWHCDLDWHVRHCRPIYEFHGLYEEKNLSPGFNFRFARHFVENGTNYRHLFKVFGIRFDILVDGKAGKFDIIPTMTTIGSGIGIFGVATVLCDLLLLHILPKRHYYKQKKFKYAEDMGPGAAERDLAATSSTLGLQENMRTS

[8] = molecular target: P2Y2 (Homo sapiens, UniProt P41231); details: cited from earlier work
[9] = molecular target: P2Y4 (Homo sapiens, UniProt P51582); details: cited from earlier work
[10] = molecular target: P2Y6 (Homo sapiens, UniProt Q15077); details: cited from earlier work
[11] = molecular target: T5, adenylyl cyclase-linked P2Y receptor in C6 glioma cells (Rattus norvegicus, UniProt Q9EPX4); details: cited from earlier work
T5 construct: at the adenylyl cyclase-linked P2Y receptor in C6 glioma cells; host or cells: C6 glioma cells (endogenous receptor)

[12] = system: novel avian P2Y receptor that inhibits adenylyl cyclase; details: cited from earlier work

A2A receptors, sequence (P29274 whole entry): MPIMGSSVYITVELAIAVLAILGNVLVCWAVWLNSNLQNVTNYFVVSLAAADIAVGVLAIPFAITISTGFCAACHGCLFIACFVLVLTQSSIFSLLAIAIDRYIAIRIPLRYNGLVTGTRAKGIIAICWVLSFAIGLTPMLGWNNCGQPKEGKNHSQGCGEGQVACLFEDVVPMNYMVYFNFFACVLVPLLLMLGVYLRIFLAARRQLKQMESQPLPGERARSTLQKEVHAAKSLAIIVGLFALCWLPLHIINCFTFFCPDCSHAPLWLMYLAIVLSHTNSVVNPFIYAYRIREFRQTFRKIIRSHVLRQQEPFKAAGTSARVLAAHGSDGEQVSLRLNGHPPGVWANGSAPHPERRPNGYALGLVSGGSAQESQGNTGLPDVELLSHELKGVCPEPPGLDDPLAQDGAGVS
P2Y4, sequence (P51582 whole entry, species assumed): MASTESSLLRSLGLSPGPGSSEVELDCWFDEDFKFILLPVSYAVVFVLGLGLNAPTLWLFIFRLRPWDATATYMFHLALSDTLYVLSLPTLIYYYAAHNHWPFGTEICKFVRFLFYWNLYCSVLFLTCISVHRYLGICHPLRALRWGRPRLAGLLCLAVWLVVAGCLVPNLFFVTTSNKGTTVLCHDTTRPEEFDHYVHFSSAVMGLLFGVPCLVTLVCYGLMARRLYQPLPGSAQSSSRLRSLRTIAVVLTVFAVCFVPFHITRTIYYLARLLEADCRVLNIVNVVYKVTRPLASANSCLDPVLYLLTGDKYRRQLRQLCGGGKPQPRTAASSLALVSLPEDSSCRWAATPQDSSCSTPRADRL
T5 sequence (Q9EPX4 whole entry): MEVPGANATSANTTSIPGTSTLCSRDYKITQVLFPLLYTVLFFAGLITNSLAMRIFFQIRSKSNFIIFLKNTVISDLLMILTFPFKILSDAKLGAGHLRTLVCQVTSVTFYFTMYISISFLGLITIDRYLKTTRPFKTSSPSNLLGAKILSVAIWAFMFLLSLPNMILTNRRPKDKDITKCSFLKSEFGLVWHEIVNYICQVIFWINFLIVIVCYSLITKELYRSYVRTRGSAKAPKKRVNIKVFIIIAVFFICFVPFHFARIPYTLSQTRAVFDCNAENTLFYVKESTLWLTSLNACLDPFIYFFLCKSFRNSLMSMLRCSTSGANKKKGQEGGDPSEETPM
P2Y6, sequence (Q15077 whole entry, species assumed): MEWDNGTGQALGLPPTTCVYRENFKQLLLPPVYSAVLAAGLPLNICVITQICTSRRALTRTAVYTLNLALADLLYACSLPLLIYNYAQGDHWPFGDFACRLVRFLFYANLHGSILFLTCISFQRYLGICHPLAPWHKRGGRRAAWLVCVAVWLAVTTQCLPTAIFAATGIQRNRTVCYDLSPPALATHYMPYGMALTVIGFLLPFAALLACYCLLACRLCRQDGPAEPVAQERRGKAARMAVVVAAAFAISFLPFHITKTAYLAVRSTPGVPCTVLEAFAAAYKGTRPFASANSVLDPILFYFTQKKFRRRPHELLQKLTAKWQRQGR
P2Y2, sequence (P41231 whole entry, species assumed): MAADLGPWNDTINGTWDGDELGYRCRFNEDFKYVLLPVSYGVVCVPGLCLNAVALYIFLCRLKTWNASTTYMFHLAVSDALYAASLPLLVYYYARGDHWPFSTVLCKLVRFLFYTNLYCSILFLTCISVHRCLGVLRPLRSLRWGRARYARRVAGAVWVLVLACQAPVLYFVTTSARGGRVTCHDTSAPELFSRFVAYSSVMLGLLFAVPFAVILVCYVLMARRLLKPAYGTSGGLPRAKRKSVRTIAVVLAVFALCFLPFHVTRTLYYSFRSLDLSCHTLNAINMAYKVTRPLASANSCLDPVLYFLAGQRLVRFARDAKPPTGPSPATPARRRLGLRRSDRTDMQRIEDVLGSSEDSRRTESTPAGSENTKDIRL

| % displacement, rA1 ([1]; rat A1 receptors, at 100 μM) | Ki [2] | % displacement, hA2B [3] | Ki [4] | A1/A3 [4] | substrate of ADA, fold less ([5]; 5d compared with 5c) | relative rates of deamination [5] | Ki ([1]; rat A1 receptors, read-out: K1 (nM), rA1) | fold more potent than aristeromycin, 5b, in binding to A1 ([1]; versus 5b) | ratio of affinities of N- to S-analogues at the A3 receptor ([4]; 5c versus 5d, human A3 receptor) | fold more potent than aristeromycin, 5b, in binding to A3 ([4]; versus 5b) | Structure (SMILES) | Kb [6] | EC50 [7] | activity at P2Y2 [8] | activity at P2Y4 [9] | activity at P2Y6 [10] | activity at adenylyl cyclase-linked P2Y receptor in C6 glioma cells [11] | activity at novel avian P2Y receptor [12] |
| --- | --- | --- | --- | --- | --- | --- | --- | --- | --- | --- | --- | --- | --- | --- | --- | --- | --- | --- |
| 15% at 100 μM | > 100000 nM | 20 ± 4% at 50 μM^f | 62500 nM | >1 | 100 fold | 0.010 |  |  |  |  | Nc1ncnc2c1ncn2C12CC1C(CO)C(O)C2O (racemic) [Compound 5d] |  |  |  |  |  |  |  |
|  |  |  |  |  |  |  |  |  |  |  | CNc1ncnc2c1ncn2[C@H]1C[C@H](OP(=O)(O)O)[C@@H](COP(=O)(O)O)O1 [Compound 1a, N6-methyl-2′-deoxyadenosine-3′,5′-bisphosphate] | ~100 nM | 1200 nM | inactive | inactive | inactive | inactive | inactive |
|  | 22500 nM | 35 ± 2% at 50 μM^f | 404 ± 70 nM | 4.2 |  | 0.58 | 1680 ± 80 nM | 4 fold | 150 fold | 4500 fold | Nc1ncnc2c1ncn2C1C(O)C(O)C2(CO)CC12 (centres unmarked) [Compound 5c, 4-(6-amino-purin-9-yl)-1-hydroxymethyl-bicyclo[3.1.0]hexane-2,3-diol] |  |  |  |  |  |  |  |

Source: patent US20060270629A1, “Methanocarba cycloalkyl nucleoside analogues” (Govt of the U.S.A., represented by the Secretary, Dept of …, priority 2000, published 2006)
